From the NIST ThermoML archive (doi:10.1016/j.jct.2007.08.005)

Experiment: xn = mol fraction of the nth substance listed
Conditions: 308.15 K, 101 kPa, Liquid; for excess molar volume: Direct dilatometry; for speed of sound: Sing-around technique in a fixed-path interferometer

OCCCO [propan-1,3-diol] + O=C1CCCN1
Conditions | excess molar volume [m3/mol] | speed of sound [m/s] | viscosity [mPa·s]
x1 = 0.0149 | 7e-09 | – | –
x1 = 0.0255 | 1e-08 | – | –
x1 = 0.0365 | – | 1600.9 | 9.37
x1 = 0.0582 | 1.6e-08 | – | –
x1 = 0.059 | – | 1601.4 | 9.712
x1 = 0.0669 | 1.8e-08 | – | –
x1 = 0.0794 | – | 1602.1 | 9.969
x1 = 0.0811 | 1.9e-08 | – | –
x1 = 0.0944 | 1.9e-08 | – | –
x1 = 0.1005 | – | 1602.7 | 10.29
x1 = 0.1161 | 2.2e-08 | – | –
x1 = 0.133 | 2.3e-08 | – | –
x1 = 0.1451 | – | 1603.5 | –
x1 = 0.1452 | – | – | 10.9
x1 = 0.1507 | 2.5e-08 | – | –
x1 = 0.1752 | 2.6e-08 | – | –
x1 = 0.1944 | – | 1604.5 | 11.58
x1 = 0.2346 | 2.7e-08 | – | –
x1 = 0.2749 | 2.8e-08 | – | –
x1 = 0.3004 | – | 1606.2 | –
x1 = 0.3005 | – | – | 13.29
x1 = 0.3232 | 2.9e-08 | – | –
x1 = 0.399 | 2.8e-08 | – | –
x1 = 0.3994 | – | 1607.4 | 15.04
x1 = 0.4472 | 2.5e-08 | – | –
x1 = 0.4784 | 2.5e-08 | – | –
x1 = 0.4826 | 2.4e-08 | – | –
x1 = 0.4902 | – | 1608.2 | 16.76
x1 = 0.4941 | 2.4e-08 | – | –
x1 = 0.518 | 2.2e-08 | – | –
x1 = 0.537 | 2.1e-08 | – | –
x1 = 0.5552 | 2.1e-08 | – | –
x1 = 0.5751 | 1.8e-08 | – | –
x1 = 0.5828 | – | 1608.7 | 18.38
x1 = 0.6011 | 1.5e-08 | – | –
x1 = 0.6281 | 1.3e-08 | – | –
x1 = 0.6505 | 1e-08 | – | –
x1 = 0.6707 | 9e-09 | – | –
x1 = 0.6824 | 8e-09 | – | –
x1 = 0.6833 | – | 1608.8 | 20.23
x1 = 0.7028 | 4e-09 | – | –
x1 = 0.7232 | 1e-09 | – | –
x1 = 0.746 | -2e-09 | – | –
x1 = 0.7719 | -4e-09 | – | –
x1 = 0.7889 | – | 1608.3 | 22.45
x1 = 0.791 | -6e-09 | – | –
x1 = 0.8126 | -8e-09 | – | –
x1 = 0.8237 | -1e-08 | – | –
x1 = 0.8265 | – | 1607.7 | 23.24
x1 = 0.8409 | -1.3e-08 | – | –
x1 = 0.853 | -1.6e-08 | – | –
x1 = 0.8712 | -1.9e-08 | – | –
x1 = 0.8823 | -2.1e-08 | – | –
x1 = 0.8909 | – | 1606.7 | 24.43
x1 = 0.8935 | -2.2e-08 | – | –
x1 = 0.9116 | -2.4e-08 | – | –
x1 = 0.9186 | – | 1606.4 | 24.98
x1 = 0.9269 | -2.4e-08 | – | –
x1 = 0.9355 | -2.3e-08 | – | –
x1 = 0.9422 | – | 1605.8 | 25.52
x1 = 0.9476 | -2.2e-08 | – | –
x1 = 0.9599 | -2e-08 | – | –
x1 = 0.9712 | – | 1605 | 26.02
x1 = 0.9803 | -1.4e-08 | – | –
x1 = 0.9887 | -1.2e-08 | – | –
x1 = 0.9978 | -8e-09 | – | –

O=C1CCCN1 [2-pyrrolidinone] + OCCO
Conditions | excess molar volume [m3/mol] | speed of sound [m/s] | viscosity [mPa·s]
x2 = 0.0118 | 4e-09 | – | –
x2 = 0.0271 | 1.1e-08 | – | –
x2 = 0.0351 | – | 1600.6 | 8.955
x2 = 0.0551 | 2.1e-08 | – | –
x2 = 0.0613 | – | 1601.1 | 9.037
x2 = 0.0711 | 2.4e-08 | – | –
x2 = 0.0816 | – | 1601.4 | 9.118
x2 = 0.0891 | 3.3e-08 | – | –
x2 = 0.1123 | 3.6e-08 | – | –
x2 = 0.1155 | – | 1601.9 | 9.255
x2 = 0.1356 | 4.4e-08 | – | –
x2 = 0.1467 | 5e-08 | – | –
x2 = 0.1641 | – | 1602.4 | 9.302
x2 = 0.1671 | 5.6e-08 | – | –
x2 = 0.1927 | 6e-08 | – | –
x2 = 0.2134 | – | 1602.9 | 9.358
x2 = 0.2287 | 6.9e-08 | – | –
x2 = 0.2682 | 8.3e-08 | – | –
x2 = 0.3038 | 9.4e-08 | – | –
x2 = 0.3111 | – | 1604.5 | 9.487
x2 = 0.3336 | 1.01e-07 | – | –
x2 = 0.3866 | – | 1605.8 | 9.654
x2 = 0.4018 | 1.12e-07 | – | –
x2 = 0.4305 | 1.16e-07 | – | –
x2 = 0.4785 | 1.21e-07 | – | –
x2 = 0.4965 | 1.22e-07 | – | –
x2 = 0.5068 | – | 1607.7 | 9.833
x2 = 0.5172 | 1.22e-07 | – | –
x2 = 0.543 | 1.23e-07 | – | –
x2 = 0.5614 | 1.22e-07 | – | –
x2 = 0.6039 | – | 1610 | 9.963
x2 = 0.607 | 1.2e-07 | – | –
x2 = 0.623 | 1.19e-07 | – | –
x2 = 0.6414 | 1.17e-07 | – | –
x2 = 0.6694 | 1.15e-07 | – | –
x2 = 0.6896 | 1.11e-07 | – | –
x2 = 0.7046 | – | 1613.5 | 10.04
x2 = 0.7154 | 1.08e-07 | – | –
x2 = 0.7437 | 1.02e-07 | – | –
x2 = 0.7579 | 1e-07 | – | –
x2 = 0.7775 | 9.6e-08 | – | –
x2 = 0.8015 | – | 1617.8 | 10.29
x2 = 0.8278 | 8.7e-08 | – | –
x2 = 0.8424 | 8.4e-08 | – | –
x2 = 0.8495 | – | 1620.3 | 10.5
x2 = 0.8713 | 7.5e-08 | – | –
x2 = 0.8846 | 7e-08 | – | –
x2 = 0.8963 | 6.6e-08 | – | –
x2 = 0.8974 | – | 1624.1 | 10.75
x2 = 0.9107 | 5.9e-08 | – | –
x2 = 0.9233 | – | 1626 | 10.83
x2 = 0.9249 | 5.2e-08 | – | –
x2 = 0.9349 | 4.4e-08 | – | –
x2 = 0.9458 | – | 1627.7 | 11.05
x2 = 0.9544 | 3.6e-08 | – | –
x2 = 0.961 | 2.7e-08 | – | –
x2 = 0.9731 | – | 1631 | 11.14
x2 = 0.9747 | 1.8e-08 | – | –
x2 = 0.9869 | 1.2e-08 | – | –
x2 = 0.9976 | 4e-09 | – | –
